These results are taken from US9056876B2, “Substituted 1H-pyrazolo[3′,4′,4,5]thieno[2,3-b]pyridin-3-amine analogs as positive allosteric modulators of the muscarinic acetylcholine receptor M4” (VANDERBILT UNIVERSITY, priority 2011, dated 2015).

For orientation: pEC50 means the EC50 on a negative log10 scale, so that one unit is a factor of ten. Broadly, the EC50 is the concentration that produces a half-maximal response.

Some results are limits rather than exact numbers.

This assay addresses T1, mAChR M4 (UniProt P08173).
T1 construct: hM1 and hM4 cDNAs were purchased from Missouri S&T cDNA Resource
T1 sequence (P08173 1-479): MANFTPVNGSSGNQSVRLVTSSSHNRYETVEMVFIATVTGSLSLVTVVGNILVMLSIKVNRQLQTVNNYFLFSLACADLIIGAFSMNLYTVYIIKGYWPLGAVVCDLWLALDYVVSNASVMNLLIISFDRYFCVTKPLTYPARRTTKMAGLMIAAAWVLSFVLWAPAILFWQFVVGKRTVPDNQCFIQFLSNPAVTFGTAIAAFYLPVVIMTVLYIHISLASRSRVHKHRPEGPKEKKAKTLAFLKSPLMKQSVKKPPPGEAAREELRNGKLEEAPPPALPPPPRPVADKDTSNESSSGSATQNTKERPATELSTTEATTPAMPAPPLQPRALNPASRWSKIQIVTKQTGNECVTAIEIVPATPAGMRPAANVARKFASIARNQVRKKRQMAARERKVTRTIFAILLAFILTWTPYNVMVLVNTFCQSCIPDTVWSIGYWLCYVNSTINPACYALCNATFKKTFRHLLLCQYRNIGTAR
In words: mAChR M4 cell-based functional assay (calcium mobilization, Fluo-4, FDSS). The following applies: for Emax (%)*: % ACh maximum at 30 μM; for pEC50: positive allosteric modulator activity, EC20 acetylcholine response; for pEC50 / EC50: CHO-K1 cells; for EC50: positive allosteric modulator activity: concentration-dependent increase in the EC20 acetylcholine response, >10 μM estimated for low potency (no plateau). An excerpt: Chinese hamster ovary (CHO-K1) cells stably expressing rat (r)M1 were purchased from the American Type Culture Collection and cultured according to their indicated protocol. CHO cells stably expressing human (h)M2, hM3, and hM5 were described previously (Levey A I, et al., (1991) J Neurosci 11:3218-3226.); hM1 and hM4 cDNAs were purchased from Missouri S&T cDNA Resource; rM4 cDNA was provided by T. I. Bonner (National Institutes of Health, Bethesda, Md.). rM2 and rM3 were cloned from a rat brain cDNA library and sequence verified. hM1, rM2, rM3, hM4, and rM4 cDNAs were used to stably transfect CHO-K1 cells purchased from the American Type Culture Collection using Lipofectamine-2000. To make stable rM2, hM2, rM3, hM4, and rM4 cell lines for use in calcium mobilization assays, these cells also were stably transfected with a chimeric G-protein (Gqi5) (provided by B. R. Conklin, University of California, San Francisco) using Lipofectamine 2000. rM1, hM1, rM3, hM3, rM5, and hM5 cells were grown in Ham's F-12 medium containing 10% heat-inactivated fetal bovine serum (FBS), 20 mM HEPES, and 50 µg/mL G418 sulfate. rM2-Gqi5, hM2-Gqi5, and hM4-Gqi5 cells were grown in the same medium also containing 500 µg/mL Hygromycin B. Stable rM4-Gqi5 cells were grown in DMEM containing 10% heat-inactivated FBS, 20 mM HEPES, 400 µg/mL G418 sulfate, and 500 µg/mL Hygromycin B.
For high throughput measurement of agonist-evoked increases in intracellular calcium, CHO-K1 cells stably expressing the target muscarinic receptor were plated in growth medium lacking G418 and hygromycin at 15,000 cells/20 μL/well in Greiner 384-well black-walled, tissue culture (TC)-treated, clear-bottom plates (VWR). Cells were incubated overnight at 37° C. and 5% CO2. The next day, cells were washed using an ELX 405 (BioTek) with four washes (80 μL) of assay buffer then aspirated to 20 μL. Next, […] of 16 μM Fluo-4/acetoxymethyl ester (Invitrogen, Carlsbad, Calif.) prepared as a 2.3 mM stock in DMSO and mixed in a 1:1 ratio with 10% (w/v) Pluronic F-127 and diluted in assay buffer was added to the wells and the cell plates were incubated for 50 min at 37° C. and 5% CO2. Dye was removed by washing with the ELX 405 (four 80 μL washes of assay buffer) then aspirated to 20 μL. Compound master plates were formatted in an 11 point CRC format (1:3 dilutions) in 100% DMSO with a starting concentration of 10 mM using the BRAVO liquid handler (Agilent). Test compound CRCs were then transferred to daughter plates (240 nL) using the Echo acoustic plate reformatter (Labcyte, Sunnyvale, Calif.) and then diluted into assay buffer (40 μL) to a 2× stock using a Thermo Fisher Combi (Thermo Fisher Scientific, Waltham, Mass.).
Calcium flux was measured using the Functional Drug Screening System (FDSS) 6000 (Hamamatsu Corporation, Tokyo, Japan) as an increase in the fluorescent static ratio. Compounds were applied to cells (20 μL, 2×) using the automated system of the FDSS 6000 at 4 s into the 300 s protocol and the data were collected at 1 Hz. At 144 s into the 300 s protocol, 10 μL of an EC20 concentration of the muscarinic receptor agonist acetylcholine was added (5×), followed by the addition of 12 μL an EC80 concentration of acetylcholine at the 230 s time point (5×). Agonist activity was analyzed as a concentration-dependent increase in calcium mobilization upon compound addition. Positive allosteric modulator activity was analyzed as a concentration-dependent increase in the EC20 acetylcholine response. Antagonist activity was analyzed as a concentration-dependent decrease in the EC80 acetylcholine response. Concentration-response curves were generated using a four-parameter logistical equation in XLfit curve fitting software (IDBS, Bridgewater, N.J.) for Excel (Microsoft, Redmond, Wash.) or Prism (GraphPad Software, Inc., San Diego, Calif.). […]

Turning to `Cc1cc(C)c2c(n1)sc1c(NCc3csc(C)n3)nn(C)c12` [Compound 82, 1,6,8-trimethyl-N-((2-methylthiazol-4-yl)methyl)-1H-pyrazolo[3′,4′:4,5]thieno[2,3-b]pyridin-3-amine], the “Emax (%)*” value came to 63%, the pEC50 came out at 6.41 and the EC50 is 390 nM.
On to `Cc1cc(C)c2c(n1)sc1c(NC3CCC(NC(=O)OC(C)(C)C)CC3)n[nH]c12` (centres unmarked) [Compound 139, tert-butyl (4-((6,8-dimethyl-1H-pyrazolo[3′,4′:4,5]thieno[2,3-b]pyridin-3-yl)amino)cyclohexyl)carbamate], for which the pEC50 is below 5.00 and the EC50 is above 10000 nM.
`Cc1cc(C)cc(CNc2nn(C)c3c2sc2nc(C)cc(C)c23)c1` [Compound 58, N-(3,5-dimethylbenzyl)-1,6,8-trimethyl-1H-pyrazolo[3′,4′:4,5]thieno[2,3-b]pyridin-3-amine]: the “Emax (%)*” value is given as 37%, the pEC50 was below 5.00 and the EC50 was above 10000 nM.
With `Cc1ccnc2sc3c(NCc4ccncc4)nn(C)c3c12` [Compound 62, 1,8-dimethyl-N-(pyridin-4-ylmethyl)-1H-pyrazolo[3′,4′:4,5]thieno[2,3-b]pyridin-3-amine], the “Emax (%)*” value stood at 74%, the pEC50 stood at 6.19 and the EC50 was 640 nM.
Consider `Cc1cc(C)c2c(n1)sc1c(NC3CCN(C)CC3)n[nH]c12` [Compound 134, 6,8-dimethyl-N-(1-methylpiperidin-4-yl)-1H-pyrazolo[3′,4′:4,5]thieno[2,3-b]pyridin-3-amine], for which the pEC50 is on record as below 5.00 and the EC50 was above 10000 nM.
In the case of `Cc1cc(C)c2c(n1)sc1c(NC3CCN(C)CC3)nn(C)c12` [Compound 74, 1,6,8-trimethyl-N-(1-methylpiperidin-4-yl)-1H-pyrazolo[3′,4′:4,5]thieno[2,3-b]pyridin-3-amine], the “Emax (%)*” value was 52%, the pEC50 turned out to be 5.52 and the EC50 is 3000 nM.
On to `COc1cc(OC)cc(C(C)Nc2nn(C)c3c2sc2nc(C)cc(C)c23)c1` (centres unmarked) [Compound 48, N-(1-(3,5-dimethoxyphenyl)ethyl)-1,6,8-trimethyl-1H-pyrazolo[3′,4′:4,5]thieno[2,3-b]pyridin-3-amine], for which the “Emax (%)*” value is given as 38%, the negative-log EC50 (pEC50) is below 5.00 and the EC50 was above 10000 nM.
For `COc1ccc(Cn2nc(N)c3sc4nc(C)c(Cl)c(C)c4c32)cc1` [Compound 161, 7-chloro-1-(4-methoxybenzyl)-6,8-dimethyl-1H-pyrazolo[3′,4′:4,5]thieno[2,3-b]pyridin-3-amine], the pEC50 was below 5.00 and the EC50 was above 10000 nM.
Turning to `Cc1cc(C)c2c(n1)sc1c(NC3CCCCC3)n[nH]c12` [Compound 132, N-cyclohexyl-6,8-dimethyl-1H-pyrazolo[3′,4′:4,5]thieno[2,3-b]pyridin-3-amine], the pEC50 is given as below 5.00 and the EC50 was above 10000 nM.
In the case of `Cc1cc(C)c2c(n1)sc1c(NC3CCOCC3)nn(C)c12` [Compound 65, 1,6,8-trimethyl-N-(tetrahydro-2H-pyran-4-yl)-1H-pyrazolo[3′,4′:4,5]thieno[2,3-b]pyridin-3-amine], the “Emax (%)*” value was found to be 78%, the pEC50 amounted to 6.00 and the EC50 is 1000 nM.
Take `Cc1cc(C)c2c(n1)sc1c(NCc3ccc(F)cc3)nn(C)c12` [Compound 39, N-(4-fluorobenzyl)-1,6,8-trimethyl-1H-pyrazolo[3′,4′:4,5]thieno[2,3-b]pyridin-3-amine]: the “Emax (%)*” value came to 68%, the negative-log EC50 (pEC50) is given as 6.30 and the EC50 is 500 nM.
For `Cc1ccnc2sc3c(NCc4ccccc4)nn(C)c3c12` [Compound 68, N-benzyl-1,8-dimethyl-1H-pyrazolo[3′,4′:4,5]thieno[2,3-b]pyridin-3-amine], in that order: 75%, 6.24 and 580 nM.
